Laboratory results: PubChem BioAssay (NCI)
Where “and” joins values, the source holds several entries; their conditions need not be identical. Equal entries are not always repeated.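 The compound was tested at five concentrations on cells cultured in 96-well plates, with a 48-hour exposure period. GI50 = concentration required for 50% inhibition of growth. TGI: total growth inhibition.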

Legend:
Experiment in all cases: growth of human tumour cells (NCI), 48 h
SK-MEL-2 melanoma = system: SK-MEL-2 melanoma
MALME-3M melanoma = system: MALME-3M melanoma
RPMI-8226 leukemia = system: RPMI-8226 leukemia
SK-MEL-5 melanoma = system: SK-MEL-5 melanoma
NCI-H226 lung = system: NCI-H226 lung
M14 melanoma = system: M14 melanoma
EKVX NSCLC = system: EKVX NSCLC
MDA-MB-435 = system: MDA-MB-435
LOX IMVI melanoma = system: LOX IMVI melanoma
MDA-MB-231 breast = system: MDA-MB-231 breast

Structure (SMILES) | TGI (SK-MEL-2 melanoma) | TGI (MALME-3M melanoma) | TGI (RPMI-8226 leukemia) | TGI (SK-MEL-5 melanoma) | TGI (NCI-H226 lung) | TGI (M14 melanoma) | TGI (EKVX NSCLC) | TGI (MDA-MB-435) [µM] | TGI (LOX IMVI melanoma) | TGI (MDA-MB-231 breast) [µM] | GI50 (SK-MEL-2 melanoma) [µM] | GI50 (MALME-3M melanoma) [µM] | GI50 (RPMI-8226 leukemia) | GI50 (SK-MEL-5 melanoma) [µM] | GI50 (NCI-H226 lung) [µM] | GI50 (M14 melanoma) [µM] | GI50 (MDA-MB-435) [µM] | GI50 (LOX IMVI melanoma) [µM] | GI50 (MDA-MB-231 breast) [µM] | GI50 (EKVX NSCLC) [µM]
Cc1ccc(/C(C#N)=C/c2cccc([N+](=O)[O-])c2)cc1 | > 100 µM | > 100 µM | > 100 µM | > 100 µM | > 100 µM | > 100 µM | > 100 µM | > 100 | > 100 µM | 52.8 |  |  |  |  |  |  |  |  |  | 
N#CCCN1C/C(=C/c2ccc(Cl)cc2)C(=O)/C(=C/c2ccc(Cl)cc2)C1 | 4.88 µM | 5.22 µM | 0.795 µM | 2.98 µM | 8.48 µM | 3.99 µM |  | 2.99 | 1.13 µM | 7.44 | 2.19 | 2.24 | 0.255 µM | 1.59 | 2.35 | 1.8 | 1.37 | 0.303 | 2.01 | 
C=CCN1CC(=O)N2[C@@H](Cc3ccc(O)cc3F)C(=O)N(Cc3cccc(N4CC(N5CCN(CC)CC5)C4)n3)C[C@@H]2N1C(=O)NCc1ccccc1 | 0.476 µM | 0.211 µM | 26.2 µM | 0.33 µM | > 100 µM | 19.6 µM | > 100 µM | > 100 | 0.584 µM | 0.139 | 0.0435 | 0.0292 | 0.05 µM | 0.0703 | 0.0461 | 0.0445 | 0.102 | 0.0339 | 0.0216 | 0.278
COC(=O)c1cc2c(cc1Cl)SC1=NN(C)C(N(C)C)N1S2(=O)=O (configuration not stated) | > 100 µM | > 100 µM | > 100 µM | > 100 µM | > 100 µM | > 100 µM | > 100 µM | > 100 | > 100 µM | > 100 | > 100 | > 100 | > 100 µM | > 100 | > 100 | > 100 | > 100 | > 100 | > 100 | > 100
COC(=O)[C@H]1CCCN1C(=O)[C@H]1CCCN1C(=O)[C@@H](Cc1c[nH]c2ccccc12)NC(=S)Nc1cc(C(F)(F)F)cc(C(F)(F)F)c1 | 3.55 µM | 3.31 µM | 6.38 µM | 3.23 µM | 11.7 µM | 4.19 µM |  | 3.58 | 3.05 µM | 3.09 | 1.95 | 1.75 | 2.34 µM | 1.7 | 3.08 | 2.04 | 1.8 | 1.65 | 1.68 | 
N#CC1=C(/N=C/c2ccccc2)Oc2c(ccc3ccccc23)C1c1ccccc1 (configuration not stated) | > 100 µM | > 100 µM | > 100 µM | 2.5 µM | > 100 µM | > 100 µM | > 100 µM | 0.573 | > 100 µM | 20.5 | 1.41 | 0.67 | 0.441 µM | 0.378 | 1.13 | 0.484 | 0.227 | 0.559 | 1.31 | 5.13
O=[N+]([O-])c1ccc(N2CCOCC2)c2c1no[n+]2[O-] | 5.11 µM | 4.28 µM | 4.09 µM | 3.34 µM | 17.5 µM | 3.81 µM | 6.72 µM | 7.35 | 2.13 µM | 15.6 | 2.06 | 1.52 | 1.51 µM | 1.41 | 2.91 | 1.11 | 2.15 | 0.675 | 2.7 | 1.93
NS(=O)(=O)c1ccc(-c2cc3ccncc3cc2OCc2ccccc2)cc1 | > 25 µM | > 25 µM | > 25 µM | > 25 µM | > 25 µM | > 25 µM | > 25 µM | > 25 | > 25 µM | > 25 | 14.6 | 22.8 | > 18.2 µM | > 25 | > 19.9 | > 25 | > 25 | > 22.6 | 14.6 | > 22.9
Cc1cc(N(CCCNc2ccnc3cc(Cl)ccc23)Cc2ccco2)nc(N2CCN(C)CC2)n1 | 4.21 µM | 3.5 µM | 5.15 µM | 3.17 µM | 24.8 µM | 3.44 µM | 22 µM | 3.23 | 3.53 µM | 8.72 | 1.95 | 1.83 | 2.09 µM | 1.75 | 12.4 | 1.85 | 1.69 | 1.69 | 2.63 | 4.99
O=C(O)Cc1cccnc1 | > 100 µM | > 100 µM | > 100 µM | > 100 µM | > 100 µM | > 100 µM | > 100 µM | > 100 | > 100 µM | > 100 |  |  |  |  |  |  |  |  |  | 
O=C(CC1(O)C(=O)N(Cc2ccccc2)c2ccccc21)c1ccc(C(=O)NCC2CCC3(CC2)OOC2(CCCCC2)OO3)cc1 (configuration not stated) | 5.24 µM | 2 µM | 3.43 µM | 3.14 µM | 10.8 µM | 7.26 µM | 2.04 µM | 2.45 | 0.31 µM | 2.95 | 2.28 | 0.566 | 0.886 µM | 1.66 | 3.5 | 2.48 | 0.875 | 0.154 | 1.15 | 0.659
CC1=C(CC(=O)c2cccc([N+](=O)[O-])c2)C(=O)c2ccccc2C1=O |  | 18.3 µM | 37.4 µM | 3.73 µM | 46.5 µM | 22.3 µM |  | 4.04 | 8.31 µM | 12.7 |  | 4.95 | 4.42 µM | 1.67 | 18.7 | 6.66 | 2.13 | 2.22 | 1.89 | 
CC1OC(OC2C(O)CC(OC3C(O)CC(OC4CCC5(C)C(CCC6C5CC(O)C5(C)C(C7=CC(=O)OC7)CCC65O)C4)OC3C)OC2C)CC(O)C1O (configuration not stated) | 0.346 µM | 0.16 µM |  | 0.129 µM | 0.266 µM | 0.349 µM | 0.121 µM | 0.318 | 0.164 µM | 0.616 | 0.128 | 0.0373 | 0.0921 µM | 0.0371 | 0.137 | 0.176 | 0.134 | 0.0428 | 0.205 | 0.0351
COc1ccc(/C=C(\C#N)n2nnc3c(F)cccc32)cc1 | > 49.9 µM | > 100 µM | > 100 µM | > 33.7 µM | > 100 µM | 1.57 µM | > 100 µM | 0.371 | 16.6 µM | 3.68 | 0.504 | 0.517 | 0.409 µM | 0.47 | 1.98 | 0.245 | 0.052 | 0.493 | 0.551 | 0.501
COC(=O)c1cncc(/C=C/c2c(C)cc(O)cc2C)c1 | 22.1 µM | > 25 µM | > 25 µM | > 16.9 µM | > 25 µM | 24.6 µM | > 25 µM | 11.7 | > 18 µM | > 23 | 8.31 | 11.5 | 9.03 µM | 6.78 | > 12.7 | 8.69 | 3.42 | 7.41 | 7.19 | > 17.3
O=C(/C=C/c1cccc(O)c1)c1cccc(-n2cc(-c3ccccc3)[nH]c2=O)c1 | 24.7 µM | 10.9 µM | 6.33 µM | 6.59 µM | 28.5 µM |  | 23 µM | 9.64 | 3.44 µM | 12.6 | 6.23 | 3.53 | 2.16 µM | 2.41 | 8.48 | 2.89 | 2.53 | 1.81 | 3.59 | 7.18
COC(=O)CCCCC(=O)c1c(C)[nH]c(/C=C2\N=C(c3ccc[nH]3)C=C2OC)c1C | 1.83 µM | 2.16 µM | 2.34 µM | 1.37 µM | 2.87 µM | 0.952 µM | 2.61 µM | 1.22 | 0.135 µM | 1.65 | 0.456 | 0.746 | 0.428 µM | 0.357 | 1.17 | 0.289 | 0.328 | 0.0416 | 0.269 | 1.14
CSc1nc2sc3c(c2c(=O)n1-c1ccc(C(C)C)cc1)CCC(=O)C3 | 5.77 µM | 8.25 µM | 5.07 µM | 3.36 µM | 4.68 µM | 7.6 µM | > 100 µM | 3.71 | 3.27 µM | 6.3 | 2.5 | 3.11 | 2.1 µM | 1.71 | 1.99 | 2.82 | 1.85 | 1.77 | 2.47 | 3.02
c1ccc2c(c1)Nc1ccncc1S2 | 36.7 µM | 89.8 µM | 78.1 µM | > 100 µM | > 100 µM | > 100 µM | 81.5 µM | > 100 | > 100 µM | > 100 | 13.6 | 28.2 | 17 µM | 25.8 | 17.1 | 32.4 | 23.2 | 23.8 | 26.9 | 12.1
CC(C)(Br)C(=O)C(Br)Br | 28.8 µM and 10.8 µM | 3.67 µM and 9.42 µM | 6.29 µM and 6.22 µM | 25 µM and 9.92 µM | 30.6 µM and 21.3 µM | 7.07 µM and 9.69 µM | 26.8 µM and 9.94 µM | 9.98 | 16.8 µM and 7.13 µM | 10 | 5.75 | 4.92 | 2.31 µM and 1.14 µM | 5.55 | 7.5 | 5.42 |  | 3.09 |  | 5.23
COc1ncnc(NS(=O)(=O)c2ccc(N=C3C(=O)N(CN4CCN(c5c(F)cc6c(=O)c(C(=O)O)cn(C7CC7)c6c5OC)CC4C)c4ccc(Br)cc43)cc2)c1OC (configuration not stated) | > 50 µM |  | 22.3 µM | 14.5 µM | > 50 µM | > 50 µM | 44.8 µM | 33.2 | 31.4 µM | 25.4 | 20.5 |  | 5.54 µM | 5.52 | 15.3 | 15.3 | 7.07 | 1.22 | 9.42 | 6.4
Cn1cc(C2=C(c3cccc(OC[C@@H](O)CO)c3)C(=O)NC2=O)c2ccccc21 | > 25 µM | > 25 µM | > 25 µM | > 25 µM | > 25 µM | > 25 µM |  | > 25 | > 25 µM | > 25 | > 25 | > 25 | > 25 µM | > 8.72 | 16.9 | > 25 | > 25 | 14.8 | > 25 | 
c1ccc2cc(-c3n(Cc4ccc5ccccc5n4)c4ccccc4[n+]3Cc3ccc4ccccc4n3)ccc2c1 | 1.01 µM | 1.69 µM | 0.52 µM | 0.422 µM |  | 1.53 µM | 2.08 µM | 1.35 | 0.837 µM | 1.32 | 0.283 | 0.379 | 0.0802 µM | 0.201 |  | 0.307 | 0.369 | 0.259 | 0.307 | 0.517
N#CCN1CCn2c1nsc2=S | > 100 µM |  | > 100 µM | > 100 µM | > 100 µM | > 100 µM | > 100 µM | > 100 | > 100 µM | > 100 | > 100 |  | > 100 µM | > 100 | > 100 | > 100 | > 100 | > 100 | > 100 | > 100
CN(CCNCc1ccccn1)CCNCc1ccccn1 |  | 3.94 µM | 67.6 µM | 3.16 µM | 4.2 µM | 5.93 µM | 12.3 µM | 4.93 | 6.88 µM | 5.93 |  | 1.46 | 3.41 µM | 1.75 | 1.92 | 2.26 | 2.21 | 2.48 | 2.56 | 3.01
O=C1c2sccc2-c2cccc3cccc1c23 (tested in a mixture with another compound) | > 100 µM | 9.06 µM | 0.668 µM |  | 33.9 µM | > 100 µM | 0.105 µM | > 100 | 18.2 µM | 54.3 |  |  |  |  |  |  |  |  |  | 
